The results in this text go back to patent US20170209499A1, “Propolis and Extracts Thereof for the Treatment of Skin Cancers and Improvement of Skin Health” (Manuka Health New Zealand Limited, priority 2014, published 2017).

The assay concerns human melanoma cell line A-2058. The assay is described as follows: MTT cell proliferation assay, human melanoma cell line A-2058. Particulars: for Mean OD: MTT Optical Density at 570 nm. The assay is classed as cell-based. An excerpt:
This example describes the in vitro bioassay used for determining the anti-proliferative activity of test compounds and cyclodextrin-encapsulated propolis complexes against human skin cancer cell lines. The present example tests anti-proliferative efficacy against the human melanoma cell line, A-2058. The cyclodextrin-encapsulated propolis complexes tested are those described in Example 1. The NZ propolis was the same propolis used to manufacture the cyclodextrin complexes CD1-CD3. The Brazilian Green propolis was the same propolis used to manufacture the cyclodextrin complex CD4. The test samples were dissolved in 15% Ethanol (EtOH)/HBSS to make a working solution, which was then diluted 10 times to give a final concentration in the cells of 50 μg/ml unless indicated otherwise.
The three human skin cancer cell lines were: • 1) Human Melanoma cell line (A-2058). • 2) Human Epidermoid (Squamous) Carcinoma cell line (A-431). • 3) Human Basal Cell Carcinoma cell line (TE 354.T).
The cell lines were revived from cryostorage and cultured in the presence of the test and reference samples. An MIT assay was then performed on the cultures to determine the effect of the samples on the cell viability and proliferation. The percentage standard error of the mean was assessed and extreme outliers were removed if the SEM%>15. Preliminary statistical significance was assessed with an independent Student t-test at α<0.05 (with and without outliers). The methodology was based on the procedures reported by: • Ahn, N G, Campbell J S (1993). […] Proc Natl Acad Sci. 90: 5143-5147. • Galan-Cobo, A et al (2014). Functional inhibition of aquaporin-3 with a gold-based compound induces blockage of cell proliferation. J Cellul. Physiol. 229: 1787-1801. • Roomi, M W, Kalinovsky, J et al (2013) Effect of a nutrient mixture on matrix metalloproteinase-9 dimers in various human cancer cell lines. Inter 3 Oncol. 44: 936-942. • Huang, H C, Lin, M K et al (2013). Cardenolides and bufadienolide glycosides from Kalanchoe tubiflora and evaluation of cytotoxicity. Planta Medica. 79: 1362-1369. • Tilli, C M L J, Stavast-Kooy, A J W et al (2003). The garlic-derived organosulfur component ajoene decreases basal cell carcinoma tumor size by inducing apoptosis. Arch Dermatol Res. 295: 117-123.
• 1. Human melanoma cell line (A-2058, ATCC CRL11147) was obtained from ATCC, Bethesda, Md., USA. • 2. Human squamous (epidermoid) carcinoma cell line (A-431, ATCC CRL1555) was obtained from ATCC, Bethesda, Md. USA. • 3. Human basal cell carcinoma cell line (TE 354.T, ATCC CRL7762) was obtained from ATCC, Bethesda, Md., USA. • 4. Dulbecco's Modified Eagle's Medium (DMEM) was obtained from GIBCO (12100-038). 10% Foetal Bovine Serum (FBS), 100 U/ml Penicillin and […] Streptomycin were added before use. • 5. Penicillin-streptomycin solution, stored at −20° C. consisting of 10000 units/ml penicillin and 10 mg/ml streptomycin in 0.9% NaCl was obtained from Sigma (#P-0781). • 6. Trypsin-EDTA solution consisting of 0.25% Trypsin/EDTA was obtained from Invitrogen (#15400054). • 7. Phosphate buffered saline (PBS) was prepared in-house. • 8. Hanks Balanced Salt Solution (HBSS), stored at 4° C. was obtained from GIBCO (#14185-052). • 9. Foetal Bovine Serum (FBS) stored at −20° C. was obtained from GIBCO (#10091-148). • 10. MTT Reagent, 100 mg/vial, was obtained from Sigma (M-2128) and then dissolved in PBS at 10 mg/ml and stored at −20° C. A 5 mg/ml MTT solution was prepared in PBS and stored at 4° C. as the working solution. • 11. MU lysis buffer: 10% sodium dodecyl sulphate (SDS)/45% Dimethyl Formamide was prepared by dissolving 20 g SDS in 100 ml of double-distilled water (DDW), and then adding 90 ml of Dimethyl Formamide to the solution. The pH was adjusted to 4.7 by glacial acetic acid, and DDW added up to a final volume of 200 ml. • 12. 5-Fluorouracil (5-FU) was supplied by Sigma (F-6627). Three working solutions were prepared at 19.5 μg/ml. 6.5 μg/ml and 1.95 μg/ml dissolved in 15% Ethanol/HBSS. […]
On the technique in general: Tetrazolium dyes change colour on reduction, which living cells bring about.

The structures appear in SMILES notation.

What is called inhibition is the drop in the measured response relative to a control, in per cent. Consider `O=c1[nH]cc(F)c(=O)[nH]1` [5-fluorouracil, reference compound], for which the “Mean OD” value is, setting by setting: (A-2058, 0.195 μg/ml) 0.1937; (A-2058, 0.65 μg/ml) 0.1832; (A-2058, 1.95 μg/ml) 0.1847. This molecule displayed an inhibition at 0.195 µg/mL (Homo sapiens, A2058, 24 h, A-2058, final conc. 0.195 μg/ml, 24 hr incubation, vs cells only) of 3.73%. At 0.65 µg/mL the inhibition (Homo sapiens, A2058, 24 h, A-2058, final conc. 0.65 μg/ml, 24 hr incubation, vs cells only) was 8.99%. The inhibition at 1.95 µg/mL (Homo sapiens, A2058, 24 h, A-2058, final conc. 1.95 μg/ml, 24 hr incubation, vs cells only) turned out to be 8.25%.
